According to BindingDB's records for PubMed 33314936 (n/a, 2020):

Assay: Agonist activity at human PGI2 receptor assessed as inhibition of ADP-induced platelet aggregation

With `CC(C)N(CCCCOCC(=O)NS(C)(=O)=O)c1cnc(-c2ccccc2)c(-c2ccccc2)n1` [ACT-293987] the IC50 was 6.4 µM.
